Experimental findings from patent publication US7235534B2, “Antisense strategy to modulate estrogen receptor response (ER α and/or ER β )” (Institut de Cardiologie de Montreal, priority 2001, dated 2007) are described below.

Data set [1] deals with ERα. Nature of the data set: Western blot of ERα protein expression in PAEC. In kind it is cell-based, porcine. Particulars: oligomer 10^−6 mol/L, vs PBS-treated cells. The procedure: (§1) The efficiency and specificity of our antisense sequences to block the targeted protein expression were evaluated by Western blot analysis. Culture medium of confluent PAEC and PSMC (100-mm tissue culture plate) were rinsed with Dulbecco's modified eagle medium (DMEM; Life Technologies Inc., Carlsbad, Calif.) and trypsinized (trypsine-EDTA; Life Technologies). Cells were resuspended in DMEM containing 5% of fetal bovine serum and antibiotics (penicillin and streptomycin, Sigma, St-Louis, Mo.), and a cell count was obtained with a Coulter counter Z1 (Coulter Electronics, Luton, UK). Cells were seeded at 1×10^6 cells/100-mm tissue culture plate (Becton-Dickinson, Rutherford, N.J.), stimulated for 24 h in DMEM, 5% FBS, and antibiotics with or without antisense oligomers (10^−7, 5×10^−7, 10^−6 mol/L) and starved for 48 h in DMEM, 0.1% FBS, and antibiotics with or without antisense oligomers (10^−7, 5×10^−7, 10^−6 mol/L daily) for G0 synchronization. LipofectAnime (5 μg/ml, Life Technology Inc) was used as a transfection reagent only on PSMC. The cells were then grown to confluence for 16 h in DMEM, 5% FBS, and antibiotics with or without antisense oligomers (10^−7, 5×10^−7, 10^−6 mol/L) and starved for 7 h in DMEM, 0.1% FBS, and antibiotics with or without antisense oligomers (10^−7, 5×10^−7, 10^−6 mol/L) to induce an up-regulation of the ER expression. Culture medium was removed, and cells were rinsed twice with ice-cold DMEM. Total proteins were prepared by the addition of 500 μl of lysis buffer containing phenylmethylsulfonyl fluoride 1 mM (Sigma), leupeptin 10 μg/ml (Sigma), aprotinin 30 μg/mi (Sigma), and NaVO3 1 mM (Sigma). Plates were incubated at 4° C. for 30 min and scraped, and the protein concentration was determined with a Bio-Rad protein kit (Bio-Rad, Hercules, Calif.). Same protein quantity for each cell type were dissolved in Laemmli's buffer, boiled for 5 min in reducing conditions, separated by a 10% gradient SDS-PAGE (Protean II kit; Bio-Rad), and transblotted onto a 0.45-μm polyvinylidene difluoride membranes (Millipore Corp., Bedford, Mass.). […]

Data set [2] concerns ERα. Nature of the data set: Western blot of ERα protein expression in PSMC. Particulars: oligomer 10^−6 mol/L, vs PBS-treated cells. The data set is classed as cell-based, porcine. The procedure:
as §1

The test system of data set [3] is ERβ. Nature of the data set: Western blot of ERβ protein expression in PSMC. The data set is classed as cell-based, porcine. Particulars: oligomer 10^−6 mol/L, vs PBS-treated cells. The procedure:
as §1

Data set [4] relates to ERβ. Briefly: Western blot of ERβ protein expression in PAEC. In kind it is cell-based, porcine. The note with it: oligomer 10^−6 mol/L, vs PBS-treated cells. The procedure:
as §1

Data set [5] has as its system Porcine aortic endothelial cells (PAEC). Nature of the data set: Chemotactic assay on PAEC (modified Boyden chamber). The data set is classed as cell-based. Particulars: 5 hrs. The procedure: (§2) Cell migration was evaluated using a modified Boyden 48-well microchamber kit (NeuroProbe, Cabin John, MD.). Near confluent EC and PSMC were rinsed with DMEM and trypsinized. Cells were resuspended in DMEM, 5% FBS, and antibiotics, and a cell count was obtained. […] ER antagonists were added 5 minutes before 17βE. Cells were harvested by trypsinization and resuspended in DMEM, 1% FBS, and antibiotics at a concentration of 5×10^5 cells/ml. […] The two sections of the system were separated by a porous polycarbonate filter (5-μm pores), pre-treated with a gelatine solution (1.5 mg/ml), and assembled. Five hours post incubation at 37° C., the nonmigrated cells were scraped with a plastic policeman, and the migrated cells were stained using a Quick-Diff solution. The filter was then mounted on a glass slide, and migrated cells were counted using a microscope adapted to a video camera to obtain a computer-digitized image.
(§3) Cell migration was evaluated using a modified Boyden 48-well microchamber kit (NeuroProbe, Cabin John, MD.). Near confluent PAEC and PSMC were rinsed with DMEM and trypsinized. Cells were resuspended in DMEM, 5% FBS, and antibiotics, and a cell count was obtained. PAEC and PSMC were seeded at 2.5×10^5 cells/well of 6-well tissue culture plates; stimulated for 24 hours in DMEM, 5% FBS, and antibiotics with or without antisense oligomers (10^−6 mol/L) and starved for 48 hours in DMEM, 0.1% FBS, and antibiotics with or without antisense oligomers (10^−6 mol/L daily) with or without 17βE (10^−8 mol/L). Cells were harvested by trypsinization and resuspended in DMEM, 1% FBS, and antibiotics at a concentration of 5×10^5 cells/mL. Fifty μL of this cell suspension with or without antisense oligomers (10^−6 mol/L) treated with or without 17βE (10^−8 mol/L) was added in the higher-chamber of the modified Boyden chamber apparatus, and the lower chamber was filled with DMEM, 1% FBS, antibiotics plus the desired concentration of agonist either 17βE (10^−8 mol/L) or platelet-derived growth factor-BB (PDGF-BB). The 2 sections of the system were separated by a porous polycarbonate filter (5-μm pores size), pretreated with a gelatine solution (1.5 mg/mL), and assembled. Five hours postincubation at 37° C., the non-migrated cells were scraped with a plastic policeman, and the migrated cells were stained using a Quick-Diff solution (Shandon Inc). The filter was then mounted on a glass slide, and migrated cells were counted using a microscope adapted to a video camera to obtain a computer-digitized image.

Data set [6] concerns Porcine smooth muscle cells (PSMC). Nature of the data set: Chemotactic assay on PSMC (modified Boyden chamber). The data set is classed as cell-based. Particulars: 5 hours. The procedure:
as §2, §3

Regarding “AS1-ERα: antisense oligonucleotide, phosphothioate backbone, targeting porcine ERα mRNA: 5′-CTC GTT GGC TTG GAT CTG-3′ (antisense CTCGTTGGCTTGGATCTG; DNA, all phosphorothioate, methylation of C not given here)”, the “inhibition of basal ERα protein expression” value was 94% in the data set on ERα [1] and 88% in the data set on ERα [2].
Take “AS1-ERβ: antisense oligonucleotide, phosphothioate backbone, targeting porcine ERβ mRNA: 5′-GTA GGA GAC AGG AGA GTT-3′ (antisense GTAGGAGACAGGAGAGTT; DNA, all phosphorothioate, methylation of C not given here)”: the “inhibition of basal ERβ protein expression” value in the data set on ERβ [3] is 84%; in the data set on ERβ [4], 90%.
For the molecule “AS2-ERα: antisense oligonucleotide, phosphothioate backbone, targeting porcine ERα mRNA: 5′-GAC GCT TTG GTG TGT AGG-3′ (antisense GACGCTTTGGTGTGTAGG; DNA, all phosphorothioate, methylation of C not given here)”, the figures for the “inhibition of basal ERα protein expression” value in the data set with ERα [1] and in the data set with ERα [2] were 95% and 89%, respectively.
Consider “AS2-ERβ: antisense oligonucleotide, phosphothioate backbone, targeting porcine ERβ mRNA: 5′-GCT AAA GGA GAG AGG TGT-3′ (antisense GCTAAAGGAGAGAGGTGT; DNA, all phosphorothioate, methylation of C not given here)”, for which the “inhibition of basal ERβ protein expression” value was 92% in the data set on ERβ [3] and 97% in the data set on ERβ [4].
For the molecule “SCR-ERα: scrambled phosphothioate sequence, negative control: 5′-TGT AGC TCG GTT CTG TCG-3′ (TGTAGCTCGGTTCTGTCG; DNA, all phosphorothioate, methylation of C not given here)”, the “inhibition of basal ERα protein expression” value in the data set on ERα [1] and in the data set on ERα [2] was “no suppressing effect” each time.
In the case of “SCR-ERβ: scrambled phosphothioate sequence, negative control: 5′-GAG TGG ACG TGA AGA AGT-3′ (GAGTGGACGTGAAGAAGT; DNA, all phosphorothioate, methylation of C not given here)”, the “inhibition of basal ERβ protein expression” value in the data set with ERβ [3] and with ERβ [4] was “no suppressing effect” in each case.
Consider “bFGF: basic fibroblast growth factor, chemotactic agonist for PAEC”, for which the “induction of PAEC migration as compared to DMEM 1%” value in data set [5] (bFGF 1 ng/ml) came to 46%; in data set [5] (bFGF 5 ng/ml), 124%; in data set [5] (bFGF 10 ng/ml), 114%.

B1: PDGF-BB: platelet derived growth factor-BB, agonist in the lower Boyden chamber and MAPK stimulus (protein, UniProt P01127 82-190, looked up)
Platelet-derived growth …: SLGSLTIAEPAMIAECKTRTEVFEISRRLIDRTNANFLVWPPCVEVQRCSGCCNNRNVQCRPTQVQLRPVQVRKIEIVRKKPIFKKATVTLEDHLACKCETVAAARPVT
In the case of B1, the “induction of PSMC migration as compared to DMEM 1%” value is 96% in data set [6] (PDGF-BB 1 ng/ml); 137% in data set [6] (PDGF-BB 5 ng/ml); 199% in data set [6] (PDGF-BB 10 ng/mL, Example 2); 202% in data set [6] (PDGF-BB 10 ng/ml, Example 1).
